“And” between values parts separate entries of the source, which are not always exact repeats. Equal entries are not always repeated. Where two headings read alike, the source gives them in different places. Where a SMILES comes first, the peptide text is derived from it. The star is where a group is joined. Palmitoyl = CCCCCCCCCCCCCCCC(=O)*
What was measured:
Type in all cases: cell-based
[1] = system: HIV-1 NL4-3 gp41 I37T pseudovirus; conditions: for Fold change in IC50: I37T relative to WT NL4-3; for IC50: I37T, TZM-bl cells, 48 h, luciferase, mean ± SD, triplicate, repeated three times
Protocol: (§1) Viral RNA was extracted from the supernatant, and, after reverse transcription, the cDNA was amplified using PCR. These amplified DNA were connected to the T-Easy vector and transformed to Trans 2-Blue Chemically Competent Cells. These sequences were determined via sequencing. The expression plasmids, which contained different HIV-1NL4-3 Env mutants, were constructed using DNA assembly (NEBuilder® HiFi DNA Assembly Master Mix). In brief, two primers were used to amplify Env, and the other two primers were used to amplify the vector fragment. The products of PCR were purified with a 20–25 bp overlap in the terminal of Env and the vector fragment Env and the vector fragment were added to the DNA assembly master mix at […] for 15 min and then transformed to Trans 2-Blue Chemically Competent Cells. Additionally, a single-point mutation was generated using double-stranded DNA templates and a selection of mutants with a restriction enzyme (DpnI) as described previously.
(§2) The infectivity of HIV Env mutants and the inhibitory activities of membrane fusion inhibitors on mutants in TZM-bl cells were measured using a single-cycle infection assay as described previously. Briefly, the HIV pseudovirus was packed using an Env-coding plasmid, and pSG3ΔEnv was co-transfected into HEK293T cells. pSG3ΔEnv encodes an Env-defective, luciferase-expressing HIV-1 genome. After the pseudoviruses were harvested and filtrated, the amount of pseudoviruses was fixed via P24 antigen, and their infectivity was determined in TZM-bl cells. In order to measure the inhibitory activities of the inhibitors, inhibitors diluted serially 3-fold were mixed with an equal volume of pseudoviruses, and then 100 µL 1 × 10^5/mL TZM-bl cells were added to the mixture and incubated at 37 °C with 5% CO2 for 48 h. After that, TZM-bl cells were lysed using reporter lysis buffer, and IC50 values were calculated according to luciferase activity measured by luciferase assay reagents and a luminescence counter (Promega, Madison, WI, USA).

[2] = system: HIV-1 NL4-3 gp41 L33S pseudovirus; conditions: for Fold change in IC50: L33S relative to WT NL4-3; for IC50: L33S, TZM-bl cells, 48 h, luciferase, mean ± SD, triplicate, repeated three times
Protocol: as §1, §2

[3] = system: HIV-1 NL4-3 gp41 Y127H pseudovirus; conditions: Table 2; for IC50: Y127H, TZM-bl cells, 48 h, luciferase, mean ± SD, triplicate, repeated three times
Protocol: (§3) The entry abilities of A15V, L57H, R68G, G86D, C87Y, E119G, and N140S were almost completely lost, corresponding to LP40-V6, LP40-V7, T20-V9, LP40-V3, LP40-V5, LP40-V4, and T20-V5, respectively, so it was determined that these mutation sites might be lethal mutations. […] The differences between the wild-type envelope proteins and serial mutant proteins in mediating membrane fusion were compared using a double-separated protein-based fusion experimental system. […] G20V, A21T, E119G, and Y127H had only an approximately 10% fusion capacity, and L33S, N42D, N42T, and N43S had less than 50% fusion capacity, but N140S had approximately 60% fusion capacity (Figure 6B). […] Among them, we selected the fusion ability of the sixth hour to evaluate the fusion activities of the mutant strains (Figure 6B).
as §1, with “previously. The successful mutations were confirmed via sequencing.” for “previously.”
as §2

[4] = system: HIV-1 NL4-3 gp41 E137K pseudovirus; conditions: Table 2; for IC50: E137K, TZM-bl cells, 48 h, luciferase, mean ± SD, triplicate, repeated three times
Protocol: as §3
as §1, with “previously. The successful mutations were confirmed via sequencing.” for “previously.”
as §2

[5] = system: HIV-1 NL4-3 gp41 D36G pseudovirus; conditions: Table 2; for IC50: D36G, TZM-bl cells, 48 h, luciferase, mean ± SD, triplicate, repeated three times
Protocol: as §3
as §1, with “previously. The successful mutations were confirmed via sequencing.” for “previously.”
as §2

[6] = system: HIV-1 NL4-3 gp41 N42T pseudovirus; conditions: Table 2; for IC50: N42T, TZM-bl cells, 48 h, luciferase, mean ± SD, triplicate, repeated three times
Protocol: as §3
as §1, with “previously. The successful mutations were confirmed via sequencing.” for “previously.”
as §2

[7] = system: HIV-1 NL4-3 gp41 S129N pseudovirus; conditions: Table 2; for IC50: S129N, TZM-bl cells, 48 h, luciferase, mean ± SD, triplicate, repeated three times
Protocol: as §3
as §1, with “previously. The successful mutations were confirmed via sequencing.” for “previously.”
as §2

[8] = system: HIV-1 NL4-3 gp41 N43S pseudovirus; conditions: Table 2; for IC50: N43S, TZM-bl cells, 48 h, luciferase, mean ± SD, triplicate, repeated three times
Protocol: as §3
as §1, with “previously. The successful mutations were confirmed via sequencing.” for “previously.”
as §2

[9] = system: LP40-V10 pseudovirus (HIV-1 NL4-3 Env mutant); conditions: for IC50: LP40-V10 (Env selected at LP-40 20 µM), TZM-bl cells, 48 h, luciferase, mean ± SD, triplicate, repeated three times
Protocol: To simulate the sequence changes of viral resistance genes under different drug concentration pressures, we constructed the Env genes under different drug concentration pressures in the PCDNA3.1 vector and obtained a series of mutations. […] T20-V 6~12, T20-V 13~14, and T 20-V 15~18 were constructed at concentrations of 200 µM (P21), 400 µM (P24), and 2000 µM (P32), respectively. Similarly, the LP-40 pressure concentrations were 0.3 µM, 8 µM, 20 µM, and 200 µM, respectively, and the constructs were numbered LP40-V 1~5, LP40-V 6~8, LP40-V 9~11, and LP40-V 12~15. Resistance mutations will cause varying levels of damage to the function of the pseudoviral envelope proteins. Here, we explored how serial mutations affect the function of viral envelope proteins. Based on this problem, we performed a single round of quantitative P24-infection experiments, packaging the pseudovirus with a previously constructed series of mutant plasmids. We compared the invasion ability of the HIV-1 wild-type and mutant pseudoviruses toward target cells under the same P24 content (using the invasion capacity of each subtype as 100%).
as §2

| Molecule | Fold change in IC50 ([1]; Table 2) [fold] | Fold change in IC50 ([1]; Table 3) [fold] | IC50 ([1]; Table 2) [nM] | Fold change in IC50 ([2]; Table 2) | Fold change in IC50 ([2]; Table 3) [fold] | IC50 ([2]; Table 2) [nM] | Fold change in IC50 ([3]; Y127H relative to WT NL4-3) [fold] | IC50 [3] [nM] | Fold change in IC50 ([4]; E137K relative to WT NL4-3) [fold] | IC50 [4] [nM] | Fold change in IC50 ([5]; D36G relative to WT NL4-3) [fold] | IC50 [5] [nM] | Fold change in IC50 ([6]; N42T relative to WT NL4-3) [fold] | IC50 [6] [nM] | Fold change in IC50 ([7]; S129N relative to WT NL4-3) [fold] | IC50 [7] [nM] | Fold change in IC50 ([8]; N43S relative to WT NL4-3) [fold] | IC50 [8] [nM] | IC50 [9] [nM] | Fold change in IC50 ([9]; LP40-V10 relative to WT NL4-3, Table 1) [fold] |
| --- | --- | --- | --- | --- | --- | --- | --- | --- | --- | --- | --- | --- | --- | --- | --- | --- | --- | --- | --- | --- |
| CCCCCCCCCCCCCCCC(=O)NCCCC[C@H](NC(=O)[C@H](CC(=O)O)NC(=O)[C@H](CC(C)C)NC(=O)[C@H](CCC(=O)O)NC(=O)[C@H](CC(C)C)NC(=O)[C@H](CC(C)C)NC(=O)[C@H](CCC(=O)O)NC(=O)[C@H](CCC(N)=O)NC(=O)[C@H](CCC(=O)O)NC(=O)[C@H](CC(N)=O)NC(=O)[C@H](CCCCN)NC(=O)[C@H](CCC(=O)O)NC(=O)[C@H](CCC(N)=O)NC(=O)[C@H](CCC(N)=O)NC(=O)[C@H](CC(N)=O)NC(=O)[C@H](CCC(N)=O)NC(=O)[C@H](CO)NC(=O)[C@H](CCC(=O)O)NC(=O)[C@H](CCC(=O)O)NC(=O)[C@@H](NC(=O)[C@H](CC(C)C)NC(=O)[C@H](CO)NC(=O)[C@H](Cc1c[nH]cn1)NC(=O)[C@@H](NC(=O)[C@H](CC(C)C)NC(=O)[C@H](CO)NC(=O)[C@@H](NC(=O)[C@H](Cc1ccc(O)cc1)NC(C)=O)[C@@H](C)O)[C@@H](C)CC)[C@@H](C)CC)C(N)=O [LP-40] (Ac-YTSLIHSLIEESQNQQEKNEQELLELDK(Palmitoyl)-NH2) | 16.33 | 18.85 | 515 ± 74.3 | 67 fold and 67.08 fold | 77.43 | 2120 ± 534 | 0.18 | 5.74 ± 1.86 | 1.35 | 42.6 ± 11.7 | 0.07 | 2.22 ± 0.57 | 40.18 | 1270 ± 167 | 1.08 | 34 ± 10 | 11.31 | 357 ± 117 | 2750 ± 634 | 92.52 |
| Enfuvirtide |  |  | 711 ± 157 |  |  | 3450 ± 564 |  | 23.7 ± 2.63 |  | 68.5 ± 20.1 |  | 6 ± 1.68 |  | 413 ± 82 |  | 70.3 ± 19.8 |  | 540 ± 91.9 | 1260 ± 264 |  |

Reference: PMC9223764, “In Vitro Selection and Characterization of HIV-1 Variants with Increased Resistance to LP-40, Enfuvirtide-Based Lipopeptide Inhibitor” (International Journal of Molecular Sciences, 2022)
